Experiment [1] concerns the target Kappa-type opioid receptor (Cavia porcellus, UniProt P41144). Description: Displacement of [3H]-diprenorphine from guinea pig kappa opioid receptor expressed in CHOK1 cell membranes. The conditions noted are these: cho-k1.
For experiment [2], the target named is Mu-type opioid receptor (Homo sapiens) (UniProt P35372). Description: Intrinsic activity at human mu opioid receptor expressed in CHOK1 cell membranes at 0.00001 to 20 uM after 30 mins by GTP-Eu nucleotide exchange assay relative to DAMGO. Format: functional. As to conditions: CHO-K1.
In experiment [3] the target is Delta-type opioid receptor (Homo sapiens, UniProt P41143). The experiment is described as follows: Displacement of [3H]-diprenorphine from human delta opioid receptor expressed in cell membranes.

Structures are written as SMILES.

Sequence of Delta-type opioid receptor (P41143 whole entry): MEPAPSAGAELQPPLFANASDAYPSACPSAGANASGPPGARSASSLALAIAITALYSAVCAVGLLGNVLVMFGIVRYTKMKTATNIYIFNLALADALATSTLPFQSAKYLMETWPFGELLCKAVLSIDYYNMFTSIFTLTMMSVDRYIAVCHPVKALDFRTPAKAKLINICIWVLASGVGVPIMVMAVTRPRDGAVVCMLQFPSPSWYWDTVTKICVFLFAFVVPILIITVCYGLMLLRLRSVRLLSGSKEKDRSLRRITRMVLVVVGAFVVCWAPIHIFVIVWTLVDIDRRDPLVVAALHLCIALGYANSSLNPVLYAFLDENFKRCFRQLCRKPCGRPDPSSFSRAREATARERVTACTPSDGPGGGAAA
Sequence of Mu-type opioid receptor (Homo sapiens) (P35372 whole entry): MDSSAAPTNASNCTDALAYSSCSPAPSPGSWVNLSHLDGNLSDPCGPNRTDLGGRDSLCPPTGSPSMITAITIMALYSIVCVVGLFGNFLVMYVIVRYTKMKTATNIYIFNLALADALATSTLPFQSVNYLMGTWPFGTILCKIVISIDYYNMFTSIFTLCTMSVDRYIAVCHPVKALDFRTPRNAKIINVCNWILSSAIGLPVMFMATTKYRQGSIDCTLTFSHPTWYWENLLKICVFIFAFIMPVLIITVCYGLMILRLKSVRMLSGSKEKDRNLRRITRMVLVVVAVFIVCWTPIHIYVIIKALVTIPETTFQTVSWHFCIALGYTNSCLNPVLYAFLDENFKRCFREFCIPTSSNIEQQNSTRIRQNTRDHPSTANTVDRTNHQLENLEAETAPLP
Sequence of Kappa-type opioid receptor (P41144 whole entry): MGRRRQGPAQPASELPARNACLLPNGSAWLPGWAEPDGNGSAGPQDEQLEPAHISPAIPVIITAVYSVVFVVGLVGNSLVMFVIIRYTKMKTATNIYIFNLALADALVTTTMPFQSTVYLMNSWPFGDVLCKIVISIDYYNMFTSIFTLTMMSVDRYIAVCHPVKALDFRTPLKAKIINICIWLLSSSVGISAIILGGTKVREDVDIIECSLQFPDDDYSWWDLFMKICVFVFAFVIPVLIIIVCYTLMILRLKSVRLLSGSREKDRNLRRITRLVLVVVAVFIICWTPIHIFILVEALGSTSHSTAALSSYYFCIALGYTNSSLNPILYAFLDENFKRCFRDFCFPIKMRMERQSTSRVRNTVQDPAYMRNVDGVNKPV

With `C[C@H](CN1[C@@H]2CC[C@H]1C[C@@H](c1cccc(O)c1)C2)N(Cc1ccccc1)C(=O)C1CC1`, the pKi in experiment [1] and in experiment [3] was 7 to 10.5 throughout. The same compound gave an Intrinsic activity in experiment [2] of less than 40%.

Consider `CN(C)S(=O)(=O)N(CCN1[C@@H]2CC[C@H]1C[C@@H](c1cccc(C(N)=O)c1)C2)Cc1ccc(C(F)(F)F)cc1.O=C(O)C(F)(F)F`, for which the pKi in experiment [1] and in experiment [3] was 7 to 10.5 each time. Also, the Intrinsic activity in experiment [2] was less than 40%.

For the compound `CC(C)(CO)C(=O)N(CCN1[C@@H]2CC[C@H]1C[C@@H](c1cccc(C(N)=O)c1)C2)Cc1c(F)cccc1F.O=C(O)C(F)(F)F`, the pKi in experiment [1] and in experiment [3] was 7 to 10.5 throughout. In experiment [2], this compound yielded an Intrinsic activity of less than 40%.

As for `NC(=O)c1cccc([C@H]2C[C@H]3CC[C@@H](C2)N3CCN(Cc2c(F)cccc2F)C(=O)[C@@H](O)CO)c1.O=C(O)C(F)(F)F`, the pKi in experiment [1] and in experiment [3] was 7 to 10.5 each time. In experiment [2], this compound displayed an Intrinsic activity of less than 40%.

With `N#CCC(=O)N(CCN1[C@@H]2CC[C@H]1C[C@@H](c1cccc(C(N)=O)c1)C2)Cc1c(F)cccc1F.O=C(O)C(F)(F)F`, the pKi in experiment [1] and in experiment [3] was 7 to 10.5 throughout. The same compound had an Intrinsic activity in experiment [2] of less than 40%.

In the case of `CS(=O)(=O)CC(=O)N(CCCN1[C@@H]2CC[C@H]1C[C@@H](c1cccc(C(N)=O)c1)C2)CC1CCCCC1`, the pKi in experiment [1] and in experiment [3] was 7 to 10.5 throughout. The Intrinsic activity in experiment [2] was less than 40%.

Regarding `NC(=O)c1cccc([C@H]2C[C@H]3CC[C@@H](C2)N3CCN(CC2CCCCC2)C(=O)Nc2ccc3c(c2)OCO3)c1`, the negative logarithm of the Ki (pKi) in experiment [1] and in experiment [3] was 7 to 10.5 throughout. Further, the Intrinsic activity in experiment [2] was less than 40%.

For the compound `NC(=O)c1cccc([C@H]2C[C@H]3CC[C@@H](C2)N3CCN(CC2CCC(F)(F)CC2)C(=O)[C@H](O)CO)c1.O=C(O)C(F)(F)F`, the pKi in experiment [1] and in experiment [3] was 7 to 10.5 each time. The Intrinsic activity in experiment [2] is less than 40%.

In the case of `C[C@H](CN1[C@@H]2CC[C@H]1C[C@@H](c1cccc(O)c1)C2)N(Cc1ccccc1)C(=O)Cc1ccccc1`, the pKi in experiment [1] and in experiment [3] was 7 to 10.5 throughout. Also, the Intrinsic activity in experiment [2] was less than 40%.

Turning to `O=C(C1CCCC1)N(CCN1[C@@H]2CC[C@H]1C[C@@H](c1cccc(O)c1)C2)CC1CCCCC1`, the pKi in experiment [1] and in experiment [3] was 7 to 10.5 in each case. In experiment [2], this compound gave an Intrinsic activity of less than 40%.

Regarding `CN(C)CC(=O)N(CCN1[C@@H]2CC[C@H]1C[C@@H](c1cccc(C(N)=O)c1)C2)CC1CCCCC1`, the pKi in experiment [1] and in experiment [3] was 7 to 10.5 each time. Moreover, the Intrinsic activity in experiment [2] was less than 40%.

For `O=C([C@@H](O)Cc1ccccc1)N(CCN1[C@@H]2CC[C@H]1C[C@@H](c1cccc(O)c1)C2)CC1CCCCC1`, the pKi in experiment [1] and in experiment [3] was 7 to 10.5 in each case. Besides, in experiment [2], the Intrinsic activity was less than 40%.

As for `NC(=O)c1cccc([C@H]2C[C@H]3CC[C@@H](C2)N3CCN(CCc2ccccc2)C(=O)[C@@H](O)CO)c1.O=C(O)C(F)(F)F`, the pKi in experiment [1] and in experiment [3] was 7 to 10.5 in each case. In experiment [2], this compound gave an Intrinsic activity of less than 40%.

Consider `NC(=O)c1cccc([C@H]2C[C@H]3CC[C@@H](C2)N3CCN(Cc2cccc(F)c2)C(=O)CO)c1.O=C(O)C(F)(F)F`, for which the pKi in experiment [1] and in experiment [3] was 7 to 10.5 throughout. Also, in experiment [2], the Intrinsic activity was less than 40%.

Take `NC(=O)c1cccc([C@H]2C[C@H]3CC[C@@H](C2)N3CCN(CC2CCCC2)C(=O)[C@H]2CC[C@H](O)CC2)c1.O=C(O)C(F)(F)F`: the pKi in experiment [1] and in experiment [3] was 7 to 10.5 each time. Besides, the Intrinsic activity in experiment [2] is less than 40%.

On to `O=C(CO)N(CCN1[C@@H]2CC[C@H]1C[C@@H](c1cccc(O)c1)C2)Cc1cccc(F)c1`, for which the pKi in experiment [1] and in experiment [3] was 7 to 10.5 each time. The compound further returned an Intrinsic activity in experiment [2] of less than 40%.

Regarding `CS(=O)(=O)CC(=O)N(CCN1[C@@H]2CC[C@H]1C[C@@H](c1cccc(C(N)=O)c1)C2)CC1CCC(F)(F)CC1.O=C(O)C(F)(F)F`, the pKi in experiment [1] and in experiment [3] was 7 to 10.5 each time. The compound further returned an Intrinsic activity in experiment [2] of less than 40%.

The record behind these values is ChEMBL document CHEMBL3879907, “8-azabicyclo[3.2.1]octane compounds as mu opioid receptor antagonists” (2014).
